Assay results published in EPA's ToxValDB 9.5 (doi:10.2903/j.efsa.2016.4609).
≈ marks a conversion by molar mass, not a printed value.

Columns and labels:
[1] = tested on: Oryctolagus sp.; conditions: developmental; development
[2] = tested on: Rattus norvegicus; conditions: for NOAEL: gavage
[3] = tested on: Apis mellifera; conditions: acute, duration: 48 hours, mortality
[4] = tested on: Colinus virginianus
[5] = tested on: Neomysis kadiakensis; conditions: chronic/long-term; duration: 28 days; reproduction
[6] = tested on: Ictalurus punctatus; conditions: acute; duration: 96 hours; mortality
[7] = tested on: Pimephales promelas; conditions: chronic/long-term; duration: 56 days; mortality
[8] = tested on: Tagia sp.; conditions: chronic/long-term; mortality
[9] = chronic, duration: 2 years, histopathology: neoplastic

| Structure (SMILES) | LOAEL [1] | LD50 ([2]; acute, oral, mortality) | LOAEL [2, 9] | LOAEL ([2]; reproduction developmental, reproduction) | LD50 ([3]; dermal) | LD50 ([3]; oral, unspecified) | LD50 ([4]; acute, oral, mortality) | NOEL ([4]; reproduction developmental) | NOEC [5] | LC50 [6] | NOEC [7] | NOEC [8] | NOAEL ([2]; short-term, duration: 28 days, oral, Wistar) | NOAEL ([2]; subchronic, duration: 90 days, oral, hematological) |
| --- | --- | --- | --- | --- | --- | --- | --- | --- | --- | --- | --- | --- | --- | --- |
| CC(C)NC(=O)N1CC(=O)N(c2cc(Cl)cc(Cl)c2)C1=O | 20 mg/kg-day | > 2000 mg/kg-day | 6.1 mg/kg-day | 26.9 mg/kg-day | > 100 µg/piece | > 100 µg/piece | 3780 mg/kg-day | 22.3 mg/kg-day | 0.0075 mg/L | 3.1 mg/L (≈ 9.39 µM) | 0.0731 mg/L | 1000 mg/kg |  |  |
| NC(CCC(=O)Nc1cc(Cl)cc(Cl)c1)C(=O)O (stereo unspecified) [N-(3,5-Dichlorophenyl)glutamine] |  |  |  |  |  |  |  |  |  |  |  |  | 7.5 mg/kg-day | 1 mg/kg-day |
| NC(=O)NC(=O)Nc1cc(Cl)c(O)c(Cl)c1 [N-(3,5-Dichloro-4-hydroxyphenyl)-2-imidodicarbonic diamide] | 20 mg/kg-day |  | 6.1 mg/kg-day |  |  |  |  |  |  |  |  |  |  |  |
